How the values were obtained:
[1] = mouse; cited from earlier work
[2] = test system: LPC-lesioned spinal cord; test: LPC focal demyelination of spinal cord, remyelination histology; format: in vivo, mouse; details: ifenprodil 10 mg per kg or tamoxifen 2 mg per kg, daily i.p., 8 days from day 4 after lesion
[3] = test system: mouse brain sterol levels; test: Analysis of mouse brain sterol levels (GC/MS); format: in vivo; details: ifenprodil 10 mg per kg, tamoxifen 2 mg per kg, daily, 3 days
[4] = test system: human induced pluripotent stem cell-derived cortical spheroids; test: Sterol profiling in human iPSC-derived cortical spheroids; format: cell-based
[5] = test system: human myelinating cortical spheroids; test: MyRF+ oligodendrocytes in human myelinating cortical spheroids; format: cell-based; details: spheroids treated 10 days from day 62, stained day 93
Procedure: Spheroids at day 62 were treated with the indicated small molecules for 10 days and stained at day 93. Four spheroids were analyzed per treatment condition, and four fields per organoid were used in the quantitation. f) Representative images of spheroids. Nuclei are labeled with DAPI (blue), and oligodendrocytes are immunostained for MyRF (red). Scale bar, 100 μm.

In the case of `CC(C(O)c1ccc(O)cc1)N1CCC(Cc2ccccc2)CC1` (centres unmarked) [ifenprodil, Ifenprodil], the “blood brain barrier penetration” value [1] is given as “known to cross the mouse blood brain barrier”, the “remyelination of LPC lesion” value [2] is given as “remyelination was widespread throughout the lesion” and the “8,9-unsaturated sterols in mouse CNS” value [3] is given as “induced significant accumulation of 8,9-unsaturated sterols in vivo in the CNS”. The “8,9-unsaturated sterol accumulation in human cortical spheroids” value [4] was “led to 8,9-unsaturated sterol accumulation” and the “formation of MyRF-positive human oligodendrocytes” value [5] was “enhanced the formation of myelin regulatory factor (MyRF)-positive human oligodendrocytes”.

From patent US12102644B2, “Compounds and methods of promoting myelination” (Case Western Reserve University, priority 2019, dated 2024)
